Test results taken from patent publication US8252781B2, “1,2-diazetidin-3-one derivatives and drugs containing same” (Kowa Company, Ltd., priority 2008, dated 2012).

How the values were obtained:
Format in all cases: biochemical
human 11β-HSD1 = biological target: T1, human 11β-HSD1 (Homo sapiens, UniProt P28845); assay: Enzyme inhibitory activity, human 11β-HSD1 (lysate of stably expressing HEK293 cells, cortisol by competitive ELISA); conditions: Table 1; human 11β-HSD1, cell lysate, 37° C. for 1 hour; read-out: h HSD1 in vitro assay (IC50 uM)
T1 construct: The obtained PCR products of about 0.9 kbp, 1.2 kbp, and 0.9 kbp were subcloned into an expression vector pcDNA3.1+/Zeo; expressed in transfected cells
Outline: (§1)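 Sonicated lysates of stably transfected cells (diluted to 0.1–0.4 mg/mL before addition) reacted for 1 h at 37 °C in pH 7.4 Tris/sucrose/EGTA/EDTA/MgCl2 buffer with 100 nmol/L cortisone or cortisol and 400 μmol/L NADPH or NAD+, then were heat-stopped at 95 °C. Inhibition rate = 100 minus residual activity.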

mouse 11β-HSD1 = biological target: T2, mouse 11β-HSD1 (Mus musculus, UniProt P50172); assay: Enzyme inhibitory activity, mouse 11β-HSD1 (lysate of stably expressing CHO-K1 cells, cortisol by competitive ELISA); conditions: Table 2; mouse 11β-HSD1, cell lysate, 37° C. for 1 hour; read-out: m HSD1 in vitro assay (IC50 uM)
T2 construct: The obtained PCR products of about 0.9 kbp, 1.2 kbp, and 0.9 kbp were subcloned into an expression vector pcDNA3.1+/Zeo; expressed in transfected cells
Outline: as §1

human 11β-HSD2 = biological target: T3, human 11β-HSD2 (Homo sapiens, UniProt P80365); assay: Enzyme inhibitory activity, human 11β-HSD2 (lysate of stably expressing HEK293 cells, cortisol by competitive ELISA); conditions: Table 1; human 11β-HSD2, cell lysate, 37° C. for 1 hour; read-out: h HSD2 in vitro assay (IC50 uM)
T3 construct: The obtained PCR products of about 0.9 kbp, 1.2 kbp, and 0.9 kbp were subcloned into an expression vector pcDNA3.1+/Zeo; expressed in transfected cells
T3 sequence (P80365 1-405): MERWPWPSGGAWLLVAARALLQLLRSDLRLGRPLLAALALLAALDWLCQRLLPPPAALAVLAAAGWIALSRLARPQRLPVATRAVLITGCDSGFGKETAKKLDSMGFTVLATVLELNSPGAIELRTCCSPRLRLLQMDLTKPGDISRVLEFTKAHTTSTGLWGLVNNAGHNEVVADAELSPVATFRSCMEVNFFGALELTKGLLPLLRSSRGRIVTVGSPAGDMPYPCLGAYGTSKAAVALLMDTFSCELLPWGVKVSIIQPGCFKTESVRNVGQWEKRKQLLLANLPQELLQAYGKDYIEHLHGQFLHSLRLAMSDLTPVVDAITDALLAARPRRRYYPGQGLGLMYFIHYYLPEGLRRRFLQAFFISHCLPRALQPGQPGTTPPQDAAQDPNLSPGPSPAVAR
Method: 1. Human 11β-HSD1-, Human 11β-HSD2- and Mouse 11β-HSD1-Gene Clonings and Establishment of Stably Expressing Cells
Human 11β-HSD1-, human 11β-HSD2-, and mouse 11β-HSD1-gene clonings were conducted using as a template a reverse transcription product of human-liver RNA, human-kidney RNA (CELL APPLICATIONS), and mouse-kidney RNA respectively, by means of PCR cloning with reference to nucleotide sequences of Genbank Accession Nos. NM_005525, NM_000196, and NM_008288. The obtained PCR products of about 0.9 kbp, 1.2 kbp, and 0.9 kbp were subcloned into an expression vector pcDNA3.1+/Zeo (Invitrogen).
Human 11β-HSD1- and human 11β-HSD2-expressing vectors were transfected into human kidney-derived cell line, HEK293 cells, using a transfection reagent, jet PEI (Funakoshi). Mouse 11β-HSD1 was transfected to Chinese hamster ovary-derived cell line, CHO-K1 cells. Selection was conducted with 200-400 μg/mL of zeocine (Invitrogen) to provide stably expressing-cell clones. The stably expressing cells were suspended in buffer solution A (20 mmol/L Tris-HCl, pH 7.4, 250 mmol/L sucrose, 1 mmol/L EGTA, 1 mmol/L EDTA, 1 mmol/L MgCl2), sonicated, and then stored at −80° C.
2. Assay of Enzyme Inhibitory Activity
An enzymatic reaction was conducted using a polystyrene 96-well plate. Each well was added with 1 μL of a test agent dissolved in DMSO and then diluted (0.003 to 3 mmol/L), and further added with 10 μL of cell lysate diluted to a concentration of 0.1 mg/mL to 0.4 mg/mL. Next, 90 μL of buffer solution A containing substrate (100 nmol/L cortisone or cortisol) and coenzyme (400 μmol/L NADPH or NAD+) was added and the mixture was incubated at 37° C. for 1 hour. The enzymatic reaction was stopped by treating at 95° C. for 3 minutes. Cortisol that was present in the reaction solution was determined by a competitive ELISA shown below.
Anti-rabbit IgG antibody (Chemi-con) diluted to 2 μg/mL with carbonate buffer solution (pH 9.6) was added in 100 μL each to a 96-well immuno plate (Nunc) and immobilized by an incubation at 4° C. overnight. 50 μL of enzymatic reaction solution was put onto the plates, and further, anti-cortisol antibody (Cosmo Bio) and HRP-labeled cortisol (Cosmo Bio), diluted with buffer solution B (25 mmol/L Tris-HCl pH 7.4, 137 mmol/L NaCl, 2.68 mmol/L KCl), were added in 50 μL respectively and incubated at 4° C. overnight. After washed three times with buffer solution B containing 0.05% Tween 20, the plates were allowed to develop color by adding 100 μL of color reagent, TMB (Moss). The color reaction was stopped by 25 μL of 1 mol/L sulfuric acid and the absorbance was determined at 450 nm with a microplate reader (Molecular Device, VersaMax).
The values of human 11β-HSD1, human 11β-HSD2, and mouse 11β-HSD1 activities were subtracted from 100, and the resultant values were regarded as the respective 11β-HSD inhibition rates of example compounds. […] The comparison of human 11β-HSD1 and human 11β-HSD2 inhibiting activities is shown in Table 1, and the comparison of human 11β-HSD1 and mouse 11β-HSD1 inhibiting activities is shown in Table 2.

T2 sequence (P50172 whole entry): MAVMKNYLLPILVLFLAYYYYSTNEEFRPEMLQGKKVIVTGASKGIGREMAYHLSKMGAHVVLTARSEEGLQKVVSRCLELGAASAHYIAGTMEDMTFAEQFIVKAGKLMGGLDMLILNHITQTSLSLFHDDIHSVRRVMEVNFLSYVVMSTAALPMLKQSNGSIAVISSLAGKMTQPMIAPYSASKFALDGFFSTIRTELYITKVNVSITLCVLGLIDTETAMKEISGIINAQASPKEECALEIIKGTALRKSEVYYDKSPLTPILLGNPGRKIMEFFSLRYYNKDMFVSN
T1 sequence (P28845 whole entry): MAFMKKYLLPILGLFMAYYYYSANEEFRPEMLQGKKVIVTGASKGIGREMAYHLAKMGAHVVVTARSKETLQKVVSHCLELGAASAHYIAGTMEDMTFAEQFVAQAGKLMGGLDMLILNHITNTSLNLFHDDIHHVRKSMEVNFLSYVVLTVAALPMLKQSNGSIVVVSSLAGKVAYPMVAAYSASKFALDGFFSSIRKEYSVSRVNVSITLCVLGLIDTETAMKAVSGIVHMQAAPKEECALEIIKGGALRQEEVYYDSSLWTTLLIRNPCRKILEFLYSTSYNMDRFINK

Row | Compound | IC50 (human 11β-HSD1) | IC50 (mouse 11β-HSD1) | IC50 (human 11β-HSD2)
1 | CC1(C)C(=O)N(C2C3CC4CC(C3)CC2C4)N1Cc1ccccc1Br (stereo not shown) [Example 39, 1-(2-bromobenzyl)-4,4-dimethyl-2-(adamantan-2-yl)-1,2-diazetidin-3-one] | 0.015 µM | 0.04 µM | 3 µM
2 | CC1(C)C(=O)N(C2C3CC4CC(C3)CC2C4)N1Cc1ccccc1I (stereo not shown) [Example 40, 1-(2-iodobenzyl)-4,4-dimethyl-2-(adamantan-2-yl)-1,2-diazetidin-3-one] | 0.012 µM | 0.084 µM | 10 µM
3 | CC1(C)C(=O)N(C2C3CC4CC(C3)CC2C4)N1Cc1cc(F)ccc1Cl (stereo not shown) [Example 41, 1-(2-chloro-5-fluorobenzyl)-4,4-dimethyl-2-(adamantan-2-yl)-1,2-diazetidin-3-one] | 0.023 µM | 0.13 µM | 3.2 µM
4 | CC1(C)C(=O)N(C2C3CC4CC(C3)CC2C4)N1Cc1ccc(F)cc1C(F)(F)F (stereo not shown) [Example 48, 1-[4-fluoro-2-(trifluoromethyl)benzyl]-4,4-dimethyl-2-(adamantan-2-yl)-1,2-diazetidin-3-one] | 0.031 µM | 0.5 µM | > 30 µM
5 | CCc1ccccc1CN1N(C2C3CC4CC(C3)CC2C4)C(=O)C1(C)C (stereo not shown) [Example 50, 1-(2-ethylbenzyl)-4,4-dimethyl-2-(adamantan-2-yl)-1,2-diazetidin-3-one] | 0.042 µM | 0.16 µM | 6.6 µM
6 | CC1(C)C(=O)N(C2C3CC4CC(C3)CC2C4)N1Cc1ccc(Cl)cc1Cl (stereo not shown) [Example 52, 1-(2,4-dichlorobenzyl)-4,4-dimethyl-2-(adamantan-2-yl)-1,2-diazetidin-3-one] | 0.078 µM | 0.16 µM | 9.5 µM
7 | CSc1ccccc1CN1N(C2C3CC4CC(C3)CC2C4)C(=O)C1(C)C (stereo not shown) [Example 60, 4,4-dimethyl-1-[2-(methylthio)benzyl]-2-(adamantan-2-yl)-1,2-diazetidin-3-one] | 0.0082 µM | 0.15 µM | 1.1 µM
8 | CC1(C)C(=O)N(C2CCCCCCC2)N1Cc1cccc(Cl)c1Cl [Example 74, 2-cyclooctyl-1-(2,3-dichlorobenzyl)-4,4-dimethyl-1,2-diazetidin-3-one] | 0.046 µM | 0.13 µM | 3 to 30 µM
9 | CC1(C)C(=O)N(C2CCCCCCC2)N1Cc1ccc(F)cc1Cl [Example 76, 1-(2-chloro-4-fluorobenzyl)-2-cyclooctyl-4,4-dimethyl-1,2-diazetidin-3-one] | 0.031 µM | 0.14 µM | 4.8 µM
10 | CC1(C)C(=O)N(C2CCCCCCC2)N1Cc1cc(F)ccc1Cl [Example 77, 1-(2-chloro-5-fluorobenzyl)-2-cyclooctyl-4,4-dimethyl-1,2-diazetidin-3-one] | 0.016 µM | 0.092 µM | 2 µM
11 | CC1(C)C(=O)N(C2C3CC4CC(C3)CC2C4)N1C(=O)c1ccccc1F (stereo not shown) [Example 119, 1-[(2-fluorophenyl)carbonyl]-4,4-dimethyl-2-(adamantan-2-yl)-1,2-diazetidin-3-one] | 0.72 µM |  | > 30 µM
12 | CC1(C)C(=O)N(C2C3CC4CC(C3)CC2C4)N1C(=O)c1ccccc1Br (stereo not shown) [Example 120, 1-[(2-bromophenyl)carbonyl]-4,4-dimethyl-2-(adamantan-2-yl)-1,2-diazetidin-3-one] | 0.27 µM |  | > 30 µM
13 | CC1(C)C(=O)N(C2C3CC4CC(C3)CC2C4)N1C(=O)c1cccc2ccccc12 (stereo not shown) [Example 141, 4,4-dimethyl-1-(naphthalen-1-ylcarbonyl)-2-(adamantan-2-yl)-1,2-diazetidin-3-one] | 0.071 µM |  | 14 µM
14 | Cc1ccc(C)c(C(=O)N2N(C3C4CC5CC(C4)CC3C5)C(=O)C2(C)C)c1 (stereo not shown) [Example 161, 1-[(2,5-dimethylphenyl)carbonyl]-4,4-dimethyl-2-(adamantan-2-yl)-1,2-diazetidin-3-one] | 0.5 µM | 0.23 µM | > 30 µM
15 | CC1(C)C(=O)N(C2C3CC4CC(C3)CC2C4)N1c1ccccc1 (stereo not shown) [Example 181, 4,4-dimethyl-1-phenyl-2-(adamantan-2-yl)-1,2-diazetidin-3-one] | 0.062 µM |  | 3 to 30 µM
16 | CC1(C)C(=O)N(C2C3CC4CC(C3)CC2C4)N1c1ccccc1[N+](=O)[O-] (stereo not shown) [Example 188, 4,4-dimethyl-1-(2-nitrophenyl)-2-(adamantan-2-yl)-1,2-diazetidin-3-one] | 0.082 µM | 0.76 µM | > 30 µM
17 | CC1(C)C(=O)N(C2C3CC4CC(C3)CC2C4)N1c1ccccc1Cl (stereo not shown) [Example 189, 1-(2-chlorophenyl)-4,4-dimethyl-2-(adamantan-2-yl)-1,2-diazetidin-3-one] | 0.022 µM |  | 3 to 30 µM
18 | CC1(C)C(=O)N(C2C3CC4CC(C3)CC2C4)N1c1cccc(Cl)c1 (stereo not shown) [Example 190, 1-(3-chlorophenyl)-4,4-dimethyl-2-(adamantan-2-yl)-1,2-diazetidin-3-one] | 0.093 µM |  | 3 to 30 µM
19 | COc1ccc(N2N(C3C4CC5CC(C4)CC3C5)C(=O)C2(C)C)cc1 (stereo not shown) [Example 203, 1-(4-methoxyphenyl)-4,4-dimethyl-2-(adamantan-2-yl)-1,2-diazetidin-3-one] | 0.026 µM |  | > 30 µM
20 | CC1(C)C(=O)N(C2C3CC4CC(C3)CC2C4)N1c1cccc(Cl)c1Cl (stereo not shown) [Example 206, 1-(2,3-dichlorophenyl)-4,4-dimethyl-2-(adamantan-2-yl)-1,2-diazetidin-3-one] | 0.0061 µM | 0.44 µM | 3 to 30 µM
21 | CC1(C)C(=O)N(C2C3CC4CC(C3)CC2C4)N1c1ccc(Cl)cc1Cl (stereo not shown) [Example 208, 1-(2,4-dichlorophenyl)-4,4-dimethyl-2-(adamantan-2-yl)-1,2-diazetidin-3-one] | 0.02 µM |  | 3 to 30 µM
22 | CC1(C)C(=O)N([C@H]2C3CC4CC2C[C@](O)(C4)C3)N1c1cccc(Cl)c1Cl [Example 231, trans-1-(2,3-dichlorophenyl)-2-(5-hydroxyadamantan-2-yl)-4,4-dimethyl-1,2-diazetidin-3-one] | 0.088 µM |  | > 30 µM
23 | CC1(C)C(=O)N([C@H]2C3CC4CC2C[C@@](O)(C4)C3)N1c1ccc2ccccc2c1 [Example 248, cis-2-(5-hydroxyadamantan-2-yl)-4,4-dimethyl-1-(naphthalen-2-yl)-1,2-diazetidin-3-one] | 0.028 µM |  | 3 to 30 µM
24 | CC1(C)C(=O)N(C2C3CC4CC(C3)CC2C4)N1/C=C/c1ccccc1 (stereo not shown) [Example 265, 4,4-dimethyl-1-[(E)-2-phenylethenyl]-2-(adamantan-2-yl)-1,2-diazetidin-3-one] | 0.036 µM |  | 19 µM
